Test results: ChEMBL document CHEMBL1201862, “PubChem BioAssay data set” (2004)
Counter-ions that a name gives are not always drawn. Calls of active or inactive are those of the source.

Legend:
[1] = target: T1, Sentrin-specific protease 6 (Homo sapiens, UniProt Q9GZR1); format: functional;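 note: Luminescence-based dose-response confirmatory assay of SENP6 inhibition, following up an ultra-high-throughput screen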
T1 sequence (Q9GZR1 whole entry): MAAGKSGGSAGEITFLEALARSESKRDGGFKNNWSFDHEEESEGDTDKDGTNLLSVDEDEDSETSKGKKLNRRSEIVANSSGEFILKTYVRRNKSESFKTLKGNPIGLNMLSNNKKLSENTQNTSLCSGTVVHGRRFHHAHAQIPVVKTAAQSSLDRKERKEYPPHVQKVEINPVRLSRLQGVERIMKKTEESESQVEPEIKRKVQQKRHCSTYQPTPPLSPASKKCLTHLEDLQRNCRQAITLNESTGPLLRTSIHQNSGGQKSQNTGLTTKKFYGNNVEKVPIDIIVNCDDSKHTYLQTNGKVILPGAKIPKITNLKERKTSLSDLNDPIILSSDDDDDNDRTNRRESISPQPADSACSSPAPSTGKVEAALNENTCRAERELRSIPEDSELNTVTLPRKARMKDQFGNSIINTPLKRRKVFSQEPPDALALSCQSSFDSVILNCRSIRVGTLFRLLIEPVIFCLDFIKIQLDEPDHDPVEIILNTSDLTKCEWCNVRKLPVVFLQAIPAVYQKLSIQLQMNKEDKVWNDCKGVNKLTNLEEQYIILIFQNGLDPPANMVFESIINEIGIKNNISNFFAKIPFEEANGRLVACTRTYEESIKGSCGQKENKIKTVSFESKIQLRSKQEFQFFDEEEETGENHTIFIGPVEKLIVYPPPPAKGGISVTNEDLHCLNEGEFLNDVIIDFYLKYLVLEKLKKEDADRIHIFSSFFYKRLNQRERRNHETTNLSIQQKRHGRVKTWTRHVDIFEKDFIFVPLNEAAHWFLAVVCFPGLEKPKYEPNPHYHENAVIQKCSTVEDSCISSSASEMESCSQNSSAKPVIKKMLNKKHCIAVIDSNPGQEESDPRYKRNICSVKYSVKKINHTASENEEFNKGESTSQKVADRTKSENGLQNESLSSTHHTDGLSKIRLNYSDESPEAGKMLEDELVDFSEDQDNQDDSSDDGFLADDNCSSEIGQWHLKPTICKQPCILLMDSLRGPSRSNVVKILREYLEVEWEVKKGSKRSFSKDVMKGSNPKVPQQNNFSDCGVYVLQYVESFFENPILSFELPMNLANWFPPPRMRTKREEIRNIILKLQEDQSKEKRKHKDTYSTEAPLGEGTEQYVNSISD

[2] = target: T2, Sentrin-specific protease 7 (Homo sapiens, UniProt Q9BQF6); format: functional;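 note: Luminescence-based dose-response confirmation of ultra-high-throughput screening hits, measuring inhibition of SENP7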
T2 sequence (Q9BQF6 whole entry): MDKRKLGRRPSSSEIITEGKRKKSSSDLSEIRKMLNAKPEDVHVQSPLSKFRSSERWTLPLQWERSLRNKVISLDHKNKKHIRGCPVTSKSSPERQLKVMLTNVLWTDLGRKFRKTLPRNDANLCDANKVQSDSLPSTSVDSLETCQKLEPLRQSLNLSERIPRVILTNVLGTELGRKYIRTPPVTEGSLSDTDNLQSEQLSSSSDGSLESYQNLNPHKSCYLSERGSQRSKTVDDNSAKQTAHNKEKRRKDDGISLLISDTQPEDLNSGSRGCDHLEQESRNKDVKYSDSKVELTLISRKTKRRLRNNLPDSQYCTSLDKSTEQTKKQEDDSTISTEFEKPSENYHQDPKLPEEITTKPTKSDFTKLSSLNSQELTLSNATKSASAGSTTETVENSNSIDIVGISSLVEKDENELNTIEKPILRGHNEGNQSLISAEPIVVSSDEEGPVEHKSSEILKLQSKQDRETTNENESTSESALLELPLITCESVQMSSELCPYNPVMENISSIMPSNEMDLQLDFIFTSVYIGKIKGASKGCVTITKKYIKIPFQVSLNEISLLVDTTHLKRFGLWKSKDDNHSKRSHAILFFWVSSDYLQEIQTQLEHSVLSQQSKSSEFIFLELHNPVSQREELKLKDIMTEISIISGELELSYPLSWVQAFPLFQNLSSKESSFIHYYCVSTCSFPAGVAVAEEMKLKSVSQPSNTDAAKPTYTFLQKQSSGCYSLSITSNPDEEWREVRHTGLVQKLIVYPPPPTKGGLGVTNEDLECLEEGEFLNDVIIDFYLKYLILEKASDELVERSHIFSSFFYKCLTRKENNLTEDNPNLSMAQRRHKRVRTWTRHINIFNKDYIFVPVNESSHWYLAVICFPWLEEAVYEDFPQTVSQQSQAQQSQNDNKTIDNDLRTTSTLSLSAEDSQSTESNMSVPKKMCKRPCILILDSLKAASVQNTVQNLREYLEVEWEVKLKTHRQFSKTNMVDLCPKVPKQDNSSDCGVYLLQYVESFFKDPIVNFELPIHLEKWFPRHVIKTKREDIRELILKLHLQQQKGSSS

[3] = target: T3, Sentrin-specific protease 8 (Homo sapiens, UniProt Q96LD8); format: functional;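 note: luminescence read-out of SENP8 inhibition, dose-response confirmation following an ultra-high-throughput screen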
T3 sequence (Q96LD8 whole entry): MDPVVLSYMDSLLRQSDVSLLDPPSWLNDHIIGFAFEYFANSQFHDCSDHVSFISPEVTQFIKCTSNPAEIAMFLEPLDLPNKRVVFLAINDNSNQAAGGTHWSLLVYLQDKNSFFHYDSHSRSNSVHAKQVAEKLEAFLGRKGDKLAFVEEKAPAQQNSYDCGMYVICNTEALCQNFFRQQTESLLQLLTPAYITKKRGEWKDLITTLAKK

Caspase-3 = target: T4, Caspase-3 (Homo sapiens, UniProt P42574); format: functional;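 note: Dose-response selectivity test against caspase-3 for candidate inhibitors of sentrin-specific proteases (SENPs)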
T4 sequence (P42574 whole entry): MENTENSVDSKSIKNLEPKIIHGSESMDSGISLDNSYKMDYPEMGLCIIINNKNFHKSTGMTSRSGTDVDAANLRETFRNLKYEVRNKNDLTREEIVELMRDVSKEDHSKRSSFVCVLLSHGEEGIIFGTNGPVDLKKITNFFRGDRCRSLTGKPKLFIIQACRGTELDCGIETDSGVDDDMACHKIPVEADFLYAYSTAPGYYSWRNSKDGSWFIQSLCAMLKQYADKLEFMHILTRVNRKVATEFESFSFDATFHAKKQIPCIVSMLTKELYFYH

Cytochrome P450 1A2 = target: T5, Cytochrome P450 1A2 (Homo sapiens, UniProt P05177);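 note: PubChem cytochrome P450 panel assay, CYP1A2 panel member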
T5 sequence (P05177 whole entry): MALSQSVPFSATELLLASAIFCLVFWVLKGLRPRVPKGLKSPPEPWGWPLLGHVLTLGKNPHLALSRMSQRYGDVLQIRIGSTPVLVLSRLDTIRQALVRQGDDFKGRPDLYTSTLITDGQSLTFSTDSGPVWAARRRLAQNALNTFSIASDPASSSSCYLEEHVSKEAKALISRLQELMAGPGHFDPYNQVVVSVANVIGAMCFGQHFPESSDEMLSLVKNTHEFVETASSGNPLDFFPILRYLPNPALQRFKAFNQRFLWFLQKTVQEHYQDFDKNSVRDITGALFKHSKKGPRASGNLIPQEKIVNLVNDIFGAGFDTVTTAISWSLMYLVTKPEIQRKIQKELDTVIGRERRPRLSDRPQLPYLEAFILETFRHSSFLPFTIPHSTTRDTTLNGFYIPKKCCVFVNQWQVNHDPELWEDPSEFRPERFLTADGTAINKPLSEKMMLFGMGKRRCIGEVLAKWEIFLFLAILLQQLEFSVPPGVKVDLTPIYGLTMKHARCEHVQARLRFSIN

Cytochrome P450 3A4 = Cytochrome P450 3A4 (Homo sapiens, UniProt P08684);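 note: CYP3A4 tested as one member of a cytochrome P450 panel screen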
Cytochrome P450 2C19 = Cytochrome P450 2C19 (Homo sapiens, UniProt P33261); experiment: Cytochrome panel assay with activity outcomes. Panel member name: p450-cyp2c19 Compounds with AC50 equal or less than 10 uM are considered active; format: functional; settings: read-out: AC50
BJ [4] = experiment: cytotoxicity toward Ras-transformed BJeLR fibroblasts, dose response, cell-based, alamar blue fluorescence, cherrypicked samples (AID 2631); format: functional; settings: Homo sapiens;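 note: confirmatory dose-response assay in RAS-dependent BJ fibroblasts engineered with TERT, LT and ST, with cytotoxicity read by fluorescence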
cells [5] = format: functional, cell-based
BJ [6] = experiment: cells; format: functional, cell-based; settings: Homo sapiens
cells [7] = format: functional, cell-based; remark: listed apart in the source
[8] = cytotoxicity toward DRD oncogenic fibroblasts, dose response, cell-based, non-viral oncogenic, luminescence (AID 1934); format: functional; settings: Homo sapiens
[9] = target: T6, Nuclear receptor subfamily 0 group B member 1 (Homo sapiens, UniProt P51843); format: functional, cell-based;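 note: HEK293T cells transfected with SF-1 and DAX-1 plus StAR promoter luciferase reporter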
T6 sequence (P51843 whole entry): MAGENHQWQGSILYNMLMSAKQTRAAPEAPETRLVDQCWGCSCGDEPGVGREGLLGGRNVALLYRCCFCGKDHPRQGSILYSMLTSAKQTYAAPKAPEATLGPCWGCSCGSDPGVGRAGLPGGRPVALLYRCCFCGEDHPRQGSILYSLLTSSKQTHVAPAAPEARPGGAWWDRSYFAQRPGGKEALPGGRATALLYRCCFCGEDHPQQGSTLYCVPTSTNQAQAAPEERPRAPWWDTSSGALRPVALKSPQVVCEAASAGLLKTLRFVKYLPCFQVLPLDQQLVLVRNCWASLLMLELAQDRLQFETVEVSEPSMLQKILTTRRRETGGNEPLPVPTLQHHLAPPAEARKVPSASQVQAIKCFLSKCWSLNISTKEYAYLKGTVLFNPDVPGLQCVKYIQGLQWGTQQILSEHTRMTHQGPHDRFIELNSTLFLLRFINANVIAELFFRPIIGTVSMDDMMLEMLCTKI

[10] = luciferase reporter signal reduction – luminescence, H4-C neuroglioblastoma cells, dose response (AID 2458); format: functional, cell-based;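 note: H4 neuroglioblastoma cells stably carrying a luciferase reporter gene fusion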
Paired box protein Pax-8 = Paired box protein Pax-8 (Homo sapiens, UniProt Q06710); experiment: inhibitors of PAX8-driven TPO luciferase reporter, dose response, RMG-I cells, cherry-pick (AID 687027); format: functional, cell-based;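 note: luciferase reporter driven by Pax8 target thyroperoxidase promoter measured by SteadyGlo luminescence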
[11] = Luminescence Cell-Based Dose Response HTS to Identify Inhibitors of 5'UTR Stem-Loop Driven Prion Protein mRNA Translation in H4 Neuroglioblastoma Cells. [Related pubchem assays: 1827 (Project Summary), 1813 (Primary HTS)]; format: functional
[12] = inhibitors of SNCA 5'UTR-driven reporter translation, confirmation, H4 neuroglioma cells, luminescence (AID 1988); format: functional, cell-based
BJ [13] = experiment: cytotoxicity toward BJ-TERT fibroblasts, dose response, cell-based, RAS-independent, luminescence (AID 1933); format: functional; settings: Homo sapiens
[14] = inhibitors of firefly luciferase expression or activity, dose response, H4 neuroglioma cells, luminescence (AID 1990); format: functional, cell-based
[15] = inhibitors of SNCA 5'UTR-driven translation, confirmation, luminescence, H4 neuroglioblastoma cells, dose confirmation (AID 2454); format: functional, cell-based;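 note: H4 neuroglioblastoma cells carrying an alpha-synuclein 5'UTR luciferase reporter; potency for inhibition of the luciferase signal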
BJ [16] = experiment: cytotoxicity toward BJ-TERT-LT-ST fibroblasts, dose response, cell-based, RAS-independent, luminescence (AID 1935); format: functional; settings: Homo sapiens;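 note: BJ fibroblasts immortalized with TERT plus LT and ST oncogenes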
Streptococcus = experiment: Group A Streptococcus viability loss, dose response, counter-screen for streptokinase expression inhibitor project, luminescence, BacTiterGlo (AID 1915); format: functional, organism-based;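 note: potency for reduction of bacterial viability or growth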
Escherichia coli [17] = experiment: microbe, parasite or virus in culture
Escherichia coli [18] = experiment: microbe, parasite or virus in culture; remark: listed apart in the source
[19] = system: Streptococcus sp. 'group A'; experiment: growth inhibition of control SK(-) GAS strain, dose response, counter-screen for streptokinase expression inhibitor project, luminescence, kanamycin, BacTiterGlo, confirmation (AID 1900); format: functional, organism-based
[20] = LGR2 antagonists, dose response, cell-based, HEK293, CRE-luciferase reporter, cherry pick, set 2 (AID 743343); format: functional;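 note: transfected cells were stimulated with diluted bursicon conditioned medium after compound addition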
[21] = HEK293 cell cytotoxicity, dose response, cytotoxicity control, plate reader, cherry-picked samples (AID 743446); format: functional, cell-based
[22] = A549 cell cytotoxicity, dose response, cytotoxicity control, plate reader, cherry-pick, antagonist series (AID 743412); format: functional, cell-based
[23] = HepG2 cell cytotoxicity, dose response, cytotoxicity control, plate reader, cherry-pick, antagonist series (AID 743416); format: functional, cell-based
[24] = Fluorescence-based cell-based high throughput dose response assay for inhibitors of the interaction of nucleotide-binding oligomerization domain containing 2 (NOD2) and the receptor-interacting serine-threonine kinase 2 (RIPK2).; format: functional; settings: Homo sapiens
[25] = MC4R antagonists, dose response, counter-screen for LGR2 antagonist project, cell-based, plate reader, cherry pick (AID 743444); format: functional;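 note: transfected HEK 293 cells stimulated with alpha-MSH peptide; potency of inhibitors of the alpha-MSH evoked signal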

Sequence of Paired box protein Pax-8 (Q06710 whole entry): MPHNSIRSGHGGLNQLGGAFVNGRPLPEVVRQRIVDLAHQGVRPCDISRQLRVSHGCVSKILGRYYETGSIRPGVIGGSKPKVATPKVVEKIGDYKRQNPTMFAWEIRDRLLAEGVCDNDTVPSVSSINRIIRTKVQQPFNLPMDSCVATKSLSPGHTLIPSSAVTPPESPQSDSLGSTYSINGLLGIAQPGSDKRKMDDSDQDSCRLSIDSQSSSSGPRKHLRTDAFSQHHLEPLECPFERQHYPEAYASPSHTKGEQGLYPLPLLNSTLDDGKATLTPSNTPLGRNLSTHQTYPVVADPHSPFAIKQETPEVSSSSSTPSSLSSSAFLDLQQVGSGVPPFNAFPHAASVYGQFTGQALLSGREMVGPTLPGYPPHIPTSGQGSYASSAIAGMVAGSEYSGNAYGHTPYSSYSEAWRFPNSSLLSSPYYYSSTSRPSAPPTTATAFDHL
Sequence of Cytochrome P450 3A4 (P08684 whole entry): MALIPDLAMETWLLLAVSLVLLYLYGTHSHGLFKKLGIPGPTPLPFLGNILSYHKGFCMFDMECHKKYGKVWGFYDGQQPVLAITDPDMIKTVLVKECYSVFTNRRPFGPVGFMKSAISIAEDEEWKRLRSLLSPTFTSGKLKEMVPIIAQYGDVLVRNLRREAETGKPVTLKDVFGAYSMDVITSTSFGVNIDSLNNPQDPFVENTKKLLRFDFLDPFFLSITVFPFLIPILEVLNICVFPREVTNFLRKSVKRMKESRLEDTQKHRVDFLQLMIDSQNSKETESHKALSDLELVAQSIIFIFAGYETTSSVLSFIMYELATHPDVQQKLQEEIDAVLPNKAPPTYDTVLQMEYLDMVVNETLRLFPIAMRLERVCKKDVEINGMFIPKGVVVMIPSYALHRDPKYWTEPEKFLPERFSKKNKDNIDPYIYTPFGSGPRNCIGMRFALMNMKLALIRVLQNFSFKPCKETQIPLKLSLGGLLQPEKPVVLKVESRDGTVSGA
Sequence of Cytochrome P450 2C19 (P33261 whole entry): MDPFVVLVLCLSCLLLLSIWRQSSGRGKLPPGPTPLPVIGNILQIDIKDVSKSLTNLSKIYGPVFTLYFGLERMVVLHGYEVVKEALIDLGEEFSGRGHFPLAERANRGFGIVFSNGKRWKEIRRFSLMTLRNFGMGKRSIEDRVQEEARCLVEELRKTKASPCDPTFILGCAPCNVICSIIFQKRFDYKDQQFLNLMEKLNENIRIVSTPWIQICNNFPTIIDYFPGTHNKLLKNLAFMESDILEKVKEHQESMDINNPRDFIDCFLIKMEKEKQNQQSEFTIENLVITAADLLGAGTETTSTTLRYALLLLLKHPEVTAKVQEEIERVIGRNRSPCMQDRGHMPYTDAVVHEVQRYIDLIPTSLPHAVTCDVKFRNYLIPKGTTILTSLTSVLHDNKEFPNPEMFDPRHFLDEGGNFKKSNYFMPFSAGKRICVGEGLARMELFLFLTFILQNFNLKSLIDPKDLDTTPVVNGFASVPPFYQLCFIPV

COc1ccc2nc(NC(=O)c3cccc(OCc4c(C)noc4C)c3)sc2c1
inactive: IC50 [3] > 100 µM | IC50 (Caspase-3) > 100 µM
active: IC50 [1] 4.78 µM | IC50 [2] 3.67 µM

c1ccc(CN2CCC3(CCCc4ccccc43)CC2)cc1
inconclusive: AC50 (Cytochrome P450 1A2) 31.6 µM | AC50 (Cytochrome P450 3A4) | AC50 (Cytochrome P450 2C19) 10 µM

Cc1cccc(/C=N\N=C\c2cccc(C)c2)c1
active: IC50 [1] 27.6 µM | IC50 [2] 7.09 µM | IC50 [3] 47 µM | IC50 (Caspase-3) 24.6 µM

O=C(c1cc([N+](=O)[O-])ccc1N1CCOCC1)N1CCN(c2ccccc2)CC1
inactive: IC50 (cells [7]) > 67.5 µM | IC50 [9] > 67.5 µM
active: EC50 (BJ [4]) < 0.104 µM | EC50 (cells [5]) 0.959 µM | EC50 [10] 0.501 µM | AC50 (Paired box protein Pax-8) 3.76 µM | EC50 [11] < 0.1 µM | EC50 [12] < 0.1 µM | EC50 (BJ [13]) 0.309 µM | EC50 [14] 0.681 µM | EC50 [15] 0.738 µM
inconclusive: EC50 (BJ [6]) 1.2 µM | EC50 [8] 0.633 µM | EC50 (BJ [16]) 0.338 µM

CN(C)[C@@H]1C(O)=C(C(N)=O)C(=O)[C@@]2(O)C(O)=C3C(=O)c4c(O)ccc(Cl)c4[C@@](C)(O)[C@H]3C[C@@H]12 [CHLORTETRACYCLINE HYDROCHLORIDE]
active: EC50 (Streptococcus) 0.148 µM | AC50 (Escherichia coli [17]) 0.93 µM | AC50 (Escherichia coli [18]) 19.8 µM | EC50 [19] < 0.06 µM

N#CC1c2ccccc2-n2nncc2CN1Cc1cc(Cl)cc(Cl)c1 (stereo not drawn)
active: AC50 [20] 3.37 µM | AC50 [21] 6.5 µM | AC50 (Paired box protein Pax-8) 10.2 µM | AC50 [22] 15.2 µM | AC50 (Escherichia coli [17]) 2.36 µM | AC50 (Escherichia coli [18]) 22.5 µM | AC50 [23] 7.48 µM | IC50 [24] 5.8 µM | AC50 [25] 2.45 µM
